Common to all, as to assay type: cell-based
The test system of one assay is B. subtilis ATCC 6633. Briefly: MIC by agar dilution, B. subtilis ATCC 6633. The settings on record: Bacillus subtilis, ATCC6633, 17 h; B. subtilis ATCC 6633; agar dilution, Mueller-Hinton agar; read-out: Minimal Inhibitory Concentration (MIC). The method, then:
(§1) These MIC values were determined by agar dilution method: that is, two-fold dilutions of each of the test compounds were made and dispersed in a Mueller-Hinton agar medium; standard test strain which had the 10^6 CFU (Colony Forming Unit) per ml was inoculated on the medium with microplanter (Toyo, Japan), and incubated at 35°-37° C. for 17±1 hours. The structures of Ceftazidime (CAZ) and Cefotaxime (CTX) which are used as control compounds are as follows: [drawing 12]

The test system of a further assay is Staph. aureus ATCC 6538P. Description: MIC by agar dilution, Staph. aureus ATCC 6538P. The settings on record: Staphylococcus aureus, ATCC6538P, 17 h; Staph. aureus ATCC 6538P; agar dilution, Mueller-Hinton agar; read-out: Minimal Inhibitory Concentration (MIC). The method, then: as §1
(In general: In agar dilution, organisms are placed on agar that contains the substance at set levels.)

For another assay, the system named is Staph. aureus Smith. Briefly: MIC by agar dilution, Staph. aureus Smith. The settings on record: Staphylococcus aureus, 17 h, Mueller-Hinton agar, read-out: Minimal Inhibitory Concentration (MIC). The method, then:
as §1

The test system of the next assay is Staph. aureus C-57. Briefly: MIC by agar dilution, Staph. aureus C-57. Particulars: Staphylococcus aureus, C57, 17 h, Mueller-Hinton agar, read-out: Minimal Inhibitory Concentration (MIC). The procedure:
as §1

A further assay has as its system Staph. aureus C-5113. Description: MIC by agar dilution, Staph. aureus C-5113. Particulars: Staphylococcus aureus, C5113, 17 h, Mueller-Hinton agar, read-out: Minimal Inhibitory Concentration (MIC). The procedure: as §1
Another assay relates to Staph. aureus C-5216. Description: MIC by agar dilution, Staph. aureus C-5216. The settings on record: Staphylococcus aureus, C5216, 17 h, Mueller-Hinton agar, read-out: Minimal Inhibitory Concentration (MIC). The procedure: as §1
For assay [1], the system named is S. epidermidis ATCC 12228. Description: MIC by agar dilution, S. epidermidis ATCC 12228. Particulars: Staphylococcus epidermidis, ATCC12228, 17 h; S. epidermidis ATCC 12228; agar dilution, Mueller-Hinton agar; read-out: Minimal Inhibitory Concentration (MIC). The procedure:
as §1

The test system of a further assay is Ent. aerogenes IFO 12979. Description: MIC by agar dilution, Ent. aerogenes IFO 12979. The settings on record: Klebsiella aerogenes, IFO12979, 17 h, Mueller-Hinton agar, read-out: Minimal Inhibitory Concentration (MIC). The method, then:
as §1

In the next assay the test system is Ent. cloacae IFO 13535. Description: MIC by agar dilution, Ent. cloacae IFO 13535. Particulars: Enterobacter cloacae, IFO13535, 17 h; Ent. cloacae IFO 13535; agar dilution, Mueller-Hinton agar; read-out: Minimal Inhibitory Concentration (MIC). The procedure: as §1
The test system of a further assay is E. coli NIHJ JC-2. Description: MIC by agar dilution, E. coli NIHJ JC-2. The settings on record: Escherichia coli, NIHJJC2, 17 h; E. coli NIHJ JC-2; agar dilution, Mueller-Hinton agar; read-out: Minimal Inhibitory Concentration (MIC). The method, then:
as §1

The test system of another assay is E. coli No. 29. Briefly: MIC by agar dilution, E. coli No. 29. The settings on record: Escherichia coli, 17 h; E. coli No. 29; agar dilution, Mueller-Hinton agar; read-out: Minimal Inhibitory Concentration (MIC). The method, then: as §1
For a further assay, the system named is E. coli DY-1. Description: MIC by agar dilution, E. coli DY-1. The settings on record: Escherichia coli, DY1, 17 h; E. coli DY-1; agar dilution, Mueller-Hinton agar; read-out: Minimal Inhibitory Concentration (MIC). The procedure:
as §1

Another assay concerns K. pneumoniae NCTC 9632. Briefly: MIC by agar dilution, K. pneumoniae NCTC 9632. Particulars: Klebsiella pneumoniae, NCTC9632, 17 h; K. pneumoniae NCTC 9632; agar dilution, Mueller-Hinton agar; read-out: Minimal Inhibitory Concentration (MIC). The method, then:
as §1

In the next assay the test system is M. morganii DY-1. Briefly: MIC by agar dilution, M. morganii DY-1. The settings on record: Morganella morganii, DY1, 17 h; M. morganii DY-1; agar dilution, Mueller-Hinton agar; read-out: Minimal Inhibitory Concentration (MIC). The method, then: as §1
In assay [2] the test system is Ps. aeruginosa ATCC 10145. Description: MIC by agar dilution, Ps. aeruginosa ATCC 10145. The settings on record: Pseudomonas aeruginosa, ATCC10145, 17 h, Mueller-Hinton agar, read-out: Minimal Inhibitory Concentration (MIC). The method, then:
as §1

Assay [3] has as its system Ps. aeruginosa NCTC 10490. Description: MIC by agar dilution, Ps. aeruginosa NCTC 10490. Particulars: Pseudomonas aeruginosa, NCTC10490, 17 h, Mueller-Hinton agar, read-out: Minimal Inhibitory Concentration (MIC). The method, then:
as §1

A further assay deals with Ps. aeruginosa DY-2. Description: MIC by agar dilution, Ps. aeruginosa DY-2. The settings on record: Pseudomonas aeruginosa, DY2, 17 h; Ps. aeruginosa DY-2; agar dilution, Mueller-Hinton agar; read-out: Minimal Inhibitory Concentration (MIC). The procedure: as §1
Another assay concerns P. vulgaris NCTC 8313. Briefly: MIC by agar dilution, P. vulgaris NCTC 8313. Particulars: Proteus vulgaris, NCTC8313, 17 h; P. vulgaris NCTC 8313; agar dilution, Mueller-Hinton agar; read-out: Minimal Inhibitory Concentration (MIC). The procedure:
as §1

The next assay has as its system Prov. stuartii IFO 12930. Description: MIC by agar dilution, Prov. stuartii IFO 12930. The settings on record: Providencia stuartii, IFO12930, 17 h, Mueller-Hinton agar, read-out: Minimal Inhibitory Concentration (MIC). The procedure: as §1
The test system of assay [4] is Ser. marcescens IFO 12648. Description: MIC by agar dilution, Ser. marcescens IFO 12648. Particulars: Serratia marcescens, IFO12648, 17 h; Ser. marcescens IFO 12648; agar dilution, Mueller-Hinton agar; read-out: Minimal Inhibitory Concentration (MIC). The procedure:
as §1

Molecules are shown by their SMILES. ≈ marks a conversion by molar mass, not a printed value. Bounds are passed on as bounds.

For the compound `Nc1nc(/C(=N/OCF)C(=O)N[C@@H]2C(=O)N3C(C(=O)[O-])=C(C[n+]4ccn5ccc(CO)c5c4)CS[C@H]23)cs1` [Ex. 32, 7-β-[(Z)-2-(2-aminothiazol-4-yl)2-fluoromethoxyiminoacetamido]-3-(8-hydroxymethylpyrrolo[1,2-a]pyrazinium-2-yl)methyl-3-cephem-4-carboxylate], the MIC worked out at 0.1 µg/mL (≈ 0.178 µM) with B. subtilis ATCC 6633; 0.2 µg/mL (≈ 0.356 µM) in the assay on Staph. aureus ATCC 6538P; 0.78 µg/mL (≈ 1.39 µM) in the assay with Staph. aureus Smith; 25 µg/mL (≈ 44.5 µM) in the assay with Staph. aureus C-57; 3.13 µg/mL (≈ 5.57 µM) with Staph. aureus C-5113; 1.56 µg/mL (≈ 2.78 µM) with Staph. aureus C-5216. For the same compound, the MIC was 0.1 µg/mL (≈ 0.178 µM) in [1]; 0.025 µg/mL (≈ 0.0445 µM) in the assay with Ent. aerogenes IFO 12979; 0.1 µg/mL (≈ 0.178 µM) in the assay with Ent. cloacae IFO 13535; no more than 0.006 µg/mL in the assay on E. coli NIHJ JC-2; no more than 0.006 µg/mL in the assay with E. coli No. 29; no more than 0.006 µg/mL in the assay with E. coli DY-1. Moreover, the MIC worked out at 0.025 µg/mL (≈ 0.0445 µM) in the assay on K. pneumoniae NCTC 9632; 0.025 µg/mL (≈ 0.0445 µM) in the assay on M. morganii DY-1; 0.78 µg/mL (≈ 1.39 µM) in assay [2]; 0.2 µg/mL (≈ 0.356 µM) in assay [3]; 3.13 µg/mL (≈ 5.57 µM) with Ps. aeruginosa DY-2; 0.012 µg/mL (≈ 0.0214 µM) with P. vulgaris NCTC 8313. Moreover, the MIC was 0.012 µg/mL (≈ 0.0214 µM) in the assay on Prov. stuartii IFO 12930 and 0.05 µg/mL (≈ 0.089 µM) in [4].

`CCON=C(C(=O)NC1C(=O)N2C(C(=O)[O-])=C(C[n+]3ccn4c(C(N)=O)ccc4c3)CSC12)c1csc(N)n1` (stereo not drawn) [Ex. 16, 7-β-[(Z)-2-(2-aminothiazol-4-yl)-2-ethoxyiminoacetamido]-3-(6-carbamoylpyrrolo[1,2-a]pyrazinium-2-yl)methyl-3-cephem-4-carboxylate]: the MIC in the assay on B. subtilis ATCC 6633 stood at 0.1 µg/mL (≈ 0.175 µM); in the assay with Staph. aureus ATCC 6538P, 0.2 µg/mL (≈ 0.351 µM); with Staph. aureus Smith it was 0.78 µg/mL (≈ 1.37 µM); with Staph. aureus C-57, 12.5 µg/mL (≈ 21.9 µM); in the assay on Staph. aureus C-5113, 1.56 µg/mL (≈ 2.73 µM); in the assay with Staph. aureus C-5216, 1.56 µg/mL (≈ 2.73 µM). Further, the MIC in [1] amounted to 0.05 µg/mL (≈ 0.0876 µM); with Ent. aerogenes IFO 12979, 0.025 µg/mL (≈ 0.0438 µM); with Ent. cloacae IFO 13535, 0.78 µg/mL (≈ 1.37 µM); in the assay with E. coli NIHJ JC-2, 0.1 µg/mL (≈ 0.175 µM); with E. coli No. 29, 0.05 µg/mL (≈ 0.0876 µM); in the assay with E. coli DY-1, 0.025 µg/mL (≈ 0.0438 µM). The MIC in the assay on K. pneumoniae NCTC 9632 was 0.025 µg/mL (≈ 0.0438 µM); in the assay with M. morganii DY-1, 0.025 µg/mL (≈ 0.0438 µM); in assay [2], 1.56 µg/mL (≈ 2.73 µM); in [3], 0.39 µg/mL (≈ 0.683 µM); in the assay with Ps. aeruginosa DY-2, 6.25 µg/mL (≈ 11 µM); in the assay on P. vulgaris NCTC 8313, 0.012 µg/mL (≈ 0.021 µM). The MIC in the assay on Prov. stuartii IFO 12930 stood at 0.025 µg/mL (≈ 0.0438 µM); in assay [4], 0.1 µg/mL (≈ 0.175 µM).

For the compound `CO/N=C(\C(=O)N[C@@H]1C(=O)N2C(C(=O)[O-])=C(C[n+]3ccn4ccc(CO)c4c3)CS[C@H]12)c1nc(N)sc1Cl` [Ex. 54, 7-β-[(Z)-2-(2-amino-5-chlorothiazol-4-yl)-2-methoxyiminoacetamido]-3-(8-hydroxymethylpyrrolo[1,2-a]-pyrazinium-2-yl)methyl-3-cephem-4-carboxylate], the MIC in the assay with B. subtilis ATCC 6633 turned out to be 0.2 µg/mL (≈ 0.346 µM); with Staph. aureus ATCC 6538P it was 0.39 µg/mL (≈ 0.675 µM); in the assay on Staph. aureus Smith, 0.78 µg/mL (≈ 1.35 µM); with Staph. aureus C-57 it was 6.25 µg/mL (≈ 10.8 µM); in the assay on Staph. aureus C-5113, 0.78 µg/mL (≈ 1.35 µM); in the assay on Staph. aureus C-5216 it was 1.56 µg/mL (≈ 2.7 µM). The MIC is 0.05 µg/mL (≈ 0.0865 µM) in assay [1]; 0.1 µg/mL (≈ 0.173 µM) in the assay on Ent. aerogenes IFO 12979; 0.78 µg/mL (≈ 1.35 µM) in the assay with Ent. cloacae IFO 13535; 0.39 µg/mL (≈ 0.675 µM) in the assay with E. coli NIHJ JC-2; 0.05 µg/mL (≈ 0.0865 µM) in the assay with E. coli No. 29; 0.025 µg/mL (≈ 0.0433 µM) in the assay on E. coli DY-1. For the same compound, the MIC in the assay on K. pneumoniae NCTC 9632 was 0.78 µg/mL (≈ 1.35 µM); in the assay on M. morganii DY-1, 0.1 µg/mL (≈ 0.173 µM); in [2], 3.13 µg/mL (≈ 5.41 µM); in [3], 0.78 µg/mL (≈ 1.35 µM); in the assay on Ps. aeruginosa DY-2 it was 12.5 µg/mL (≈ 21.6 µM); in the assay on P. vulgaris NCTC 8313, 0.05 µg/mL (≈ 0.0865 µM). The MIC in the assay with Prov. stuartii IFO 12930 was determined as 0.025 µg/mL (≈ 0.0433 µM); in assay [4] it was 0.39 µg/mL (≈ 0.675 µM).
